From patent publication US20120269790A1, “USE OF PLANT EXTRACTS AS PREBIOTICS, COMPOSITIONS AND FOODS CONTAINING SUCH EXTRACT” (priority 2009, published 2012)

Experiments:
[1] = biological target: T1, alpha-amylase from pancreas of pig (Sus scrofa, UniProt P00690); assay: In vitro inhibition of pig alpha-amylase; type: biochemical; details: 35 micrograms/ml; 100% = activity without inhibitor
T1 construct: alpha-amylase from pancreas of pig; purchased Sigma; host or cells: pig pancreas
T1 sequence (P00690 16-511): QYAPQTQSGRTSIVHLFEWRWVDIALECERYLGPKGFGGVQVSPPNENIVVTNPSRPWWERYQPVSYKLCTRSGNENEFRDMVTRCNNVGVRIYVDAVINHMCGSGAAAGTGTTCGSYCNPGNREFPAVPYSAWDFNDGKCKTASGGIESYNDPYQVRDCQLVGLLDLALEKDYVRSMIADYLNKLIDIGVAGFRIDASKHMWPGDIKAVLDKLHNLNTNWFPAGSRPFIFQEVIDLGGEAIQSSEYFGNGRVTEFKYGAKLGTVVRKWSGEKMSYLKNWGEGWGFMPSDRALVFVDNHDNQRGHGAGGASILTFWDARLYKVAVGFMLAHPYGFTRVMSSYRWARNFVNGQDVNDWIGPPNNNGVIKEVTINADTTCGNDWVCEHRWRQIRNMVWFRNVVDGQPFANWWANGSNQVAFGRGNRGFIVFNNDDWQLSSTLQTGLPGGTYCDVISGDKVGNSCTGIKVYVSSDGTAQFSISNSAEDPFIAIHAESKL
Experimental: The enzymes tested were obtained from the following sources: alpha-amylase from pancreas of pig and alpha-glucosidase from Saccharomyces cerevisiae (both purchased from Sigma) and alpha-glucosidase from pig (isolated from pig intestine according to Menakshy et al. 2008).
Measures alpha-amylase activity and alpha-glucosidase were carried out according to procedures supplied by Sigma acquired with enzymes. Briefly, the alpha-glucosidase activity was determined spectrophotometrically at 400 nm, with p-Nitrophenyl α-D-Glucoside (PNP) as substrate and alpha-amylase activity was determined spectrophotometrically at 540 nm, with soluble potato starch as substrate. As a positive control measurements were performed with acarbose as inhibitor.
For measures with pig alpha-amylase the positive control measures were with acarbose at 35 micrograms/ml, while the concentration of pomegranate extract tested was 250 micrograms/ml.

[2] = biological target: T2, 3-hydroxy-3-methylglutaryl-CoA reductase (HMGR) (Homo sapiens, UniProt P04035); assay: In vitro HMGR activity (Sigma kit); type: biochemical; details: 500 nanomolar; 100% = activity without inhibitor
T2 construct: purchased Sigma
T2 sequence (P04035 426-888 limits assumed): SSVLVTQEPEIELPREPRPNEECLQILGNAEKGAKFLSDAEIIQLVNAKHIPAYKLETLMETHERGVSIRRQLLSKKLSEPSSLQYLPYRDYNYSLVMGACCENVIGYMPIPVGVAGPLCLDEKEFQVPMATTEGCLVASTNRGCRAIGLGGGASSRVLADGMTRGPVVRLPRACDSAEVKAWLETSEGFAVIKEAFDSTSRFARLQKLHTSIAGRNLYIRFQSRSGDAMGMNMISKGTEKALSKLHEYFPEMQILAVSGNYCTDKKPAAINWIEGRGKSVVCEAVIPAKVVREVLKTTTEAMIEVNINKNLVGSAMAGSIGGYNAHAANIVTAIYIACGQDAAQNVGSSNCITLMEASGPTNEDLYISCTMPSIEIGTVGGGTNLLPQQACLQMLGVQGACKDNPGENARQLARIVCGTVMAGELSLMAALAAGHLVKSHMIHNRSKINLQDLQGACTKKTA
Experimental: Measurements were performed in triplicate. In the case of HMGR concentration measurements used for positive control with pravastatin was 500 nanomolar, while the concentration of pomegranate extract tested was 100 micrograms/ml.

% Pig alfa-amilase Activity [1] | % HMGR activity [2] | SMILES
41.2 ± 2.3% |  | C[C@H]1O[C@H](O[C@H]2[C@H](O)[C@@H](O)[C@@H](O[C@H]3[C@H](O)[C@@H](O)C(O)O[C@@H]3CO)O[C@@H]2CO)[C@H](O)[C@@H](O)[C@@H]1N[C@H]1C=C(CO)[C@@H](O)[C@H](O)[C@H]1O (some centres unmarked) [acarbose]
 | 9.7 ± 3.4% | CC[C@H](C)C(=O)O[C@H]1C[C@H](O)C=C2C=C[C@H](C)[C@H](CC[C@@H](O)C[C@@H](O)CC(=O)O)[C@H]21 [pravastatine, pravastatin]
